Reference: patent US20250230193A1, “CYCLIC COMPOUND HAVING SELECTIVE KRAS INHIBITORY EFFECT ON HRAS AND NRAS” (CHUGAI SEIYAKU KABUSHIKI KAISHA, priority 2022, published 2025)

Assays:
[1] = molecular target: GDP-bound NRAS wild-type protein (Homo sapiens, UniProt P01111); assay: Binding to NRAS by surface plasmon resonance (SPR), Single Cycle Kinetics; details: SPR, GDP-bound NRAS wild-type vs GDP-bound KRAS wild-type
[2] = molecular target: GDP-bound HRAS wild-type protein (Homo sapiens, UniProt P01112); assay: Binding to HRAS by surface plasmon resonance (SPR), Single Cycle Kinetics; details: SPR, GDP-bound HRAS wild-type vs GDP-bound KRAS wild-type
GDP-bound HRAS wild-type protein, sequence (P01112 whole entry): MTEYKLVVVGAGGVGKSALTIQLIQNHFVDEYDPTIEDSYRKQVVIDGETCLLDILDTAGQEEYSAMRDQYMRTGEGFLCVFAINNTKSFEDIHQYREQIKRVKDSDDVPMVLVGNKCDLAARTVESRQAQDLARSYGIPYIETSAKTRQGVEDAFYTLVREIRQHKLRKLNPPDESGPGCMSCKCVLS

GDP-bound NRAS wild-type protein, sequence (P01111 whole entry): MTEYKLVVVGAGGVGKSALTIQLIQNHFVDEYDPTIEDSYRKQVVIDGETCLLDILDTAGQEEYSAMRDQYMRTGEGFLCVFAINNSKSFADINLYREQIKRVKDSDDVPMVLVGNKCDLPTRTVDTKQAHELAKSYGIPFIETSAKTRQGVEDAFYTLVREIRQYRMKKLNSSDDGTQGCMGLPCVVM

| SMILES | NRAS/KRAS (ratio of KD value with respect to NRAS to KD value with respect to KRAS) [1] | HRAS/KRAS (ratio of KD value with respect to HRAS to KD value with respect to KRAS) [2] |
| --- | --- | --- |
| CCC[C@H]1C(=O)N[C@@H]([C@@H](C)CC)C(=O)N(C)CC(=O)N(C)[C@H]2C/C=C\CCN(C2=O)[C@@H](Cc2ccc(C(F)(F)F)cc2)C(=O)N(C)CC(=O)N[C@@H](CCc2ccc(C(F)(F)F)c(OC)c2)C(=O)N2C[C@H](OCC)C[C@H]2C(=O)N(C)C2(CCC2)C(=O)N(C)[C@@H](C(CC)CC)C(=O)N(C)[C@H](C(=O)N(C)C)CC(=O)N1C [PP2382] | A (a compound having 10 or more and less than 20 is denoted as A) | A (a compound having 10 or more and less than 20 is denoted as A) |
| CCOC[C@H]1C(=O)N[C@@H]([C@@H](C)CC)C(=O)N(C)CC(=O)N(C)[C@H]2C/C=C\CCN(C2=O)[C@@H](Cc2ccc(C(F)(F)F)cc2)C(=O)N(C)CC(=O)N[C@@H](CCc2ccc(C(F)(F)F)c(OC)c2)C(=O)N2C[C@H](OCC)C[C@H]2C(=O)N(C)C2(CCC2)C(=O)N(C)[C@@H](C(CC)CC)C(=O)N(C)[C@H](C(=O)N(C)C)CC(=O)N1C [PP2383] | A (a compound having 10 or more and less than 20 is denoted as A) | A (a compound having 10 or more and less than 20 is denoted as A) |
| CC[C@H](C)[C@@H]1NC(=O)[C@H](COC)N(C)C(=O)C[C@@H](C(=O)N(C)C)N(C)C(=O)[C@H](C2CCCC2)N(C)C(=O)C2(CC(C)(C)C2)NC(=O)[C@@H]2C[C@H](C)CN2C(=O)[C@H](CCc2ccc(C(F)(F)F)c(OC)c2)NC(=O)CN(C)C(=O)[C@H](Cc2ccc(C)cc2)N2CC/C=C\C[C@@H](C2=O)N(C)C(=O)CN(C)C1=O [PP2385] | A (a compound having 10 or more and less than 20 is denoted as A) | B (a compound having 3 or more and less than 10 is denoted as B) |
| CC[C@H](C)[C@@H]1NC(=O)[C@H](COC)N(C)C(=O)C[C@@H](C(=O)N(C)C)N(C)C(=O)[C@H](C2CCCC2)N(C)C(=O)C2(CC(C)(C)C2)NC(=O)[C@@H]2C[C@H](C)CN2C(=O)[C@H](CCc2ccc(C(F)(F)F)c(OC)c2)NC(=O)CN(C)C(=O)[C@H](Cc2ccc(C)cc2)N2CC/C=C\C[C@@H](C2=O)N(C)C(=O)[C@@H]2C[C@H](C)CN2C1=O [PP2386] | A (a compound having 10 or more and less than 20 is denoted as A) | B (a compound having 3 or more and less than 10 is denoted as B) |
| CC[C@H](C)[C@@H]1NC(=O)[C@H](COC)N(C)C(=O)C[C@@H](C(=O)N(C)C)N(C)C(=O)[C@H](C2CCCC2)N(C)C(=O)C2(CC(C)(C)C2)NC(=O)[C@@H]2C[C@@H](C)CN2C(=O)[C@H](CCc2ccc(C(F)(F)F)c(OC)c2)NC(=O)CN(C)C(=O)[C@H](Cc2ccc(C)cc2)N2CC/C=C\C[C@@H](C2=O)N(C)C(=O)CN(C)C1=O [PP2387] | A (a compound having 10 or more and less than 20 is denoted as A) | A (a compound having 10 or more and less than 20 is denoted as A) |
| CCC[C@H]1C(=O)N[C@@H]([C@@H](C)CC)C(=O)N2C[C@@H](OC)C[C@H]2C(=O)N(C)[C@H]2C/C=C\CCN(C2=O)[C@@H](Cc2ccc(C)cc2)C(=O)N(C)CC(=O)N[C@@H](CCc2ccc(C(F)(F)F)c(OC)c2)C(=O)N2C[C@@H](C)C[C@H]2C(=O)NC2(CC(C)(C)C2)C(=O)N(C)[C@@H](C2CCCC2)C(=O)N(C)[C@H](C(=O)N(C)C)CC(=O)N1C [PP2388] | A (a compound having 10 or more and less than 20 is denoted as A) | B (a compound having 3 or more and less than 10 is denoted as B) |
| CCO[C@@H]1C[C@H]2C(=O)NC3(CC(C)(C)C3)C(=O)N(C)[C@@H](C3CCCC3)C(=O)N(C)[C@H](C(=O)N(C)C)CC(=O)N(C)[C@@H](COC)C(=O)N[C@@H]([C@@H](C)CC)C(=O)N(C)CC(=O)N(C)[C@H]3C/C=C\CCN(C3=O)[C@@H](Cc3ccc(C)cc3)C(=O)N(C)CC(=O)N[C@@H](CCc3ccc(C(F)(F)F)c(Cl)c3)C(=O)N2C1 [PP2389] | A (a compound having 10 or more and less than 20 is denoted as A) | B (a compound having 3 or more and less than 10 is denoted as B) |
| CC[C@H](C)[C@@H]1NC(=O)[C@H](COC)N(C)C(=O)C[C@@H](C(=O)N(C)C)N(C)C(=O)[C@H](C2CCCC2)N(C)C(=O)C2(CC(C)(C)C2)NC(=O)[C@@H]2C[C@H](C)CN2C(=O)[C@H](CCc2ccc(C(F)(F)F)c(OC)c2)NC(=O)CN(C)C(=O)[C@H](Cc2ccc(C)cc2)N2CC/C=C\C[C@@H](C2=O)N(C)C(=O)[C@@H]2C[C@H](OC)CN2C1=O [PP2390] | A (a compound having 10 or more and less than 20 is denoted as A) | B (a compound having 3 or more and less than 10 is denoted as B) |
